The test system of experiment [1] is Escherichia coli ATCC 25922. In words: Antimicrobial activity, serial dilution technique in Mueller–Hinton Broth 2. In kind it is cell-based. As to conditions: Escherichia coli, ATCC25922, Ec; average of three ± SD; - means non-active; read-out: Minimum Bactericidal and Fungicidal Concentration (MBC, MFC), Ec.
Experiment [2] deals with S. aureus. Nature of the experiment: Zone-of-inhibition test of coated PC+ plastic sample. The format is cell-based, Staphylococcus aureus. As to conditions: PC+ sample immersed 1 min in 1% solution of 12a in ethanol, 37 °C 24 h. As to the method: The inhibition-zone test is a quick and qualitative way to measure the ability of an antimicrobial agent to suppress microbial growth. The sensitivity of the method is quite high and even a small amount of residual biocide in a model system can be detected. […] In this experiment, we used cultures of the bacteria P. aeruginosa and S. aureus. First, the microbial suspension was spread on a sterile agar plate. Then, a plastic sample (PC+), which was preliminarily immersed for 1 min in a 1% solution of compound 12a in ethanol, was placed in the center of the Petri dish with agar. During the incubation period, the inoculum bacteria can only grow where is no antimicrobial agent. If the active agent is washed out of the sample into the environment (in this case, agar), bacterial growth in the area around the sample is suppressed. The width of this area is determined by the diffusion of the active compound in the vicinity. […] From the results obtained, it is clear that a relatively stable surface coating was achieved using a simple experimental procedure.
This sample was tested for possible release of the active compound. Tests were performed on a culture of Gram-negative bacteria P. aeruginosa and Gram-positive bacteria S. aureus. […] Then, Petri dishes were placed in an incubator at 37 °C for 24 h, and the presence of inhibition zones was evaluated.

For experiment [3], the system named is Trichophyton mentagrophytes var. gypseum 1773. Nature of the experiment: Fungicidal activity, serial dilution technique. The format is cell-based. As to conditions: Tm; average of three ± SD; - means non-active. Put shortly:
(§1)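 Broth serial dilution in Mueller–Hinton Broth 2 at 3.0 × 10^5 cfu/mL, incubated at 37 °C with growth scored every 24 h for 5 days. MIC taken as lowest concentration inhibiting growth; three repeats.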

Experiment [4] deals with Candida albicans ATCC 10231. Nature of the experiment: Fungicidal activity, serial dilution technique. As to conditions: average of three ± SD, - means non-active. The format is cell-based. The essentials:
as §1

On to `CCCCCCCCCCCC[P+](C(C)(C)C)(C(C)(C)C)C(C)(C)C` [Compound 12a, tri-tert-butyl(n-dodecyl)phosphonium], for which the MBC in experiment [1] worked out at 7.8 ± 0.7 µg/mL. Also, the zone of inhibition entry in experiment [2] is “no zones of inhibition”. For the same compound, in experiment [3], the “Minimum Bactericidal and Fungicidal Concentration (MBC, MFC), Tm” value was 15.6 ± 1.3 µg/mL; the “Minimum Inhibitory Concentration (MIC), Tm” value is listed as 15.6 ± 1.2 µg/mL. Besides, the “Minimum Bactericidal and Fungicidal Concentration (MBC, MFC), Ca” value in experiment [4] (Ca) is 31.3 ± 2.7 µg/mL. For the same compound, the MIC in experiment [4] (Candida albicans, ATCC10231, Ca, read-out: Minimum Inhibitory Concentration (MIC), Ca) amounted to 15.6 ± 1.4 µg/mL.

The values above are taken from article PMC8744835, “Sterically Hindered Quaternary Phosphonium Salts (QPSs): Antimicrobial Activity and Hemolytic and Cytotoxic Properties” (International Journal of Molecular Sciences, 2021).
